{
  "source": "patent US6740335B1",
  "about": "“Liposomal camptothecin formulations” (priority 1997, dated 2004)",
  "key": {"[1]": {"system": "KB (oralpharyngial carcinoma)", "assay": "3H-thymidine incorporation cytotoxicity assay, KB", "type": "cell-based, human", "settings": "Homo sapiens, 42 h, read-out: Median IC50", "protocol": "(§1) In vitro efficacy screening has been performed using GI147211 and liposomal formulations of GI147211. […] Standard tumor cell-based cytototoxicity assays assessing ^3H-thymidine incorporation were performed.\n(§2) Tumor cells were seeded into 96-well tissue culture plates (1×10^4 cells/well)≡4 h prior to experimentation. […] Positive and negative (Tris treated) control groups were included on each assay plate. Tumor cells were then labeled with 0.25 μCi of [methyl-^3H] thymidine and incubated for 42 h under tissue culture conditions (37° C., 5% CO2, 100% relative humidity), except for C6, U251, A673 and B16-F1 cells which were incubated for 24 h. Cells were then lysed, harvested onto glass-fiber filters and unincorporated [methyl-^3H] thymidine removed by filter washing. Filters were processed for scintillation counting and cpm-^3H/well determined. […] Data are presented from multiple sets of experimentation, involving multiple liposomal formulations of GI147211."}, "MDR + , KBV Xenograft": {"system": "MDR + , KBV Xenograft", "assay": "Repeat dose efficacy at equal toxic doses, KBV xenograft", "type": "in vivo, nude mice", "settings": "days 1, 8 and 15", "protocol": "(§3) Drugs were dosed on days 1,8 and 15."}, "tumor cell": {"system": "tumor cell", "settings": "tumor cell cytotoxicity assays; cited from earlier work"}, "[2]": {"system": "SKOV-3 (ovarian carcinoma)", "assay": "3H-thymidine incorporation cytotoxicity assay, SKOV-3", "type": "cell-based, human", "settings": "Homo sapiens, SK-OV-3; SKOV-3, 42 h; read-out: Median IC50", "protocol": "as §1, §2"}, "U87-MG (Astrocytoma)": {"system": "U87-MG (Astrocytoma)", "assay": "3H-thymidine incorporation cytotoxicity assay, U87-MG", "type": "cell-based, human", "settings": "Homo sapiens, U-87 MG, 42 h, read-out: Median IC50", "protocol": "as §1, §2"}, "BT-20 (Breast)": {"system": "BT-20 (Breast)", "assay": "3H-thymidine incorporation cytotoxicity assay, BT-20", "type": "cell-based, human", "settings": "Homo sapiens, BT-20, 42 h; read-out: Median IC50", "protocol": "as §1, §2"}, "ES2 Tumor Xenograft": {"system": "ES2 Tumor Xenograft", "assay": "Repeat dose efficacy at equal toxic doses, ES2 xenograft", "settings": "ES2, 14 mg/kg, days 1, 8 and 15", "protocol": "(§4) In all the studies performed, subcutaneous tumors implanted on the anterior flank of nude mice were allowed to grow to an established size of 200+/−50 mm^3 prior to dosing drugs.\nas §3"}, "[3]": {"system": "H460 (Lung, Non-Small Cell)", "assay": "3H-thymidine incorporation cytotoxicity assay, H460", "type": "cell-based, human", "settings": "Homo sapiens, NCI-H460, 42 h; read-out: Median IC50", "protocol": "as §1, §2"}, "[4]": {"system": "KBV (oralpharyngial carcinoma, vincristine resistant phenotype)", "assay": "3H-thymidine incorporation cytotoxicity assay, KBV", "type": "cell-based, human", "settings": "Homo sapiens, 42 h, read-out: Median IC50", "protocol": "as §1, §2"}, "HT29 human colon tumor": {"system": "HT29 human colon tumor", "assay": "Xenograft efficacy at identical dose, HT29", "type": "in vivo", "settings": "for Log 10 Cell Kill / T-C (time to reach 1,000% Tumor Volume, treated vs control): QD7 × 3; for % TGI: QD7 × 3, day 26", "protocol": "as §4\nThe xenograft models included the HT29 and SW48 human colon tumor lines, and the KB and KBV head-neck tumors. Drugs were dosed at either 6 or 9 mg/kg intravenously, on a weekly schedule for 3 consecutive weeks. In the SW48 xenograft study, the animals received a total of two cycles of therapy (6 injections), with a 10 day recovery period separating the two therapeutic courses. In the HT29 xenograft study a 12 and 14 mg/kg dose group was added."}},
  "note": "Counter-ions that a name gives are not always drawn.",
  "data": [
    {"smiles": "CCC1(O)C(=O)OCc2c1cc1n(c2=O)Cc2c-1nc1cc3c(cc1c2CN1CCN(C)CC1)OCCO3", "note": "(stereo in doubt) [GI147211, 7-(4-methylpiperazinomethylene)-10,11-ethylenedioxy-20(S)-camptothecin dihydrochloride]", "values": [
      {"measurement": "IC50", "setting": "[1]", "value": 4.31, "unit": "ng/mL"},
      {"measurement": "Days to 1000%", "setting": "MDR + , KBV Xenograft; 12 mg/kg", "value": 16.15, "unit": "days"},
      {"measurement": "Log 10 Cell Kill", "setting": "MDR + , KBV Xenograft; 12 mg/kg", "value": 0.53},
      {"measurement": "T − C", "setting": "MDR + , KBV Xenograft; 12 mg/kg", "value": 7.58},
      {"measurement": "Toxic Deaths", "setting": "MDR + , KBV Xenograft; 12 mg/kg", "value": 3},
      {"measurement": "Days to 1000%", "setting": "MDR + , KBV Xenograft; 14 mg/kg", "value": 17, "unit": "days"},
      {"measurement": "Log 10 Cell Kill", "setting": "MDR + , KBV Xenograft; 14 mg/kg", "value": 0.59},
      {"measurement": "T − C", "setting": "MDR + , KBV Xenograft; 14 mg/kg", "value": 8.43},
      {"measurement": "Toxic Deaths", "setting": "MDR + , KBV Xenograft; 14 mg/kg", "value": 3},
      {"measurement": "Days to 1000%", "setting": "MDR + , KBV Xenograft; 16 mg/kg", "value": 17, "unit": "days"},
      {"measurement": "Log 10 Cell Kill", "setting": "MDR + , KBV Xenograft; 16 mg/kg", "value": 0.59},
      {"measurement": "T − C", "setting": "MDR + , KBV Xenograft; 16 mg/kg", "value": 8.43},
      {"measurement": "Toxic Deaths", "setting": "MDR + , KBV Xenograft; 16 mg/kg", "value": 1},
      {"measurement": "potency relative to topotecan", "setting": "tumor cell", "value": "5-10 times"},
      {"measurement": "IC50", "setting": "[2]", "value": 1.63, "unit": "ng/mL"},
      {"measurement": "IC50", "setting": "U87-MG (Astrocytoma)", "value": 2.36, "unit": "ng/mL"},
      {"measurement": "IC50", "setting": "BT-20 (Breast)", "value": 0.0866, "unit": "ng/mL"},
      {"measurement": "Cures", "setting": "ES2 Tumor Xenograft", "value": 1},
      {"measurement": "Log Cell Kill", "setting": "ES2 Tumor Xenograft", "value": 2.14},
      {"measurement": "Maximum Body Weight loss", "setting": "ES2 Tumor Xenograft", "value": 9, "unit": "%"},
      {"measurement": "T − C (to reach 400% tumor volume increase)", "setting": "ES2 Tumor Xenograft", "value": 27, "unit": "days"},
      {"measurement": "Toxic Deaths", "setting": "ES2 Tumor Xenograft", "value": 3},
      {"measurement": "IC50", "setting": "[3]", "value": 3.61, "unit": "ng/mL"},
      {"measurement": "IC50", "setting": "[4]", "value": 584, "unit": "ng/mL"},
      {"measurement": "Log 10 Cell Kill", "setting": "HT29 human colon tumor; HT29, 6 mg/kg iv", "value": 0.753},
      {"measurement": "T-C (time to reach 1,000% Tumor Volume, treated vs control)", "setting": "HT29 human colon tumor; HT29, 6 mg/kg iv", "value": 12, "unit": "days"},
      {"measurement": "% TGI", "setting": "HT29 human colon tumor; HT29, 6 mg/kg iv", "value": 48, "unit": "%"},
      {"measurement": "Log 10 Cell Kill", "setting": "HT29 human colon tumor; HT29, 9 mg/kg iv", "value": 0.753},
      {"measurement": "T-C (time to reach 1,000% Tumor Volume, treated vs control)", "setting": "HT29 human colon tumor; HT29, 9 mg/kg iv", "value": 12, "unit": "days"},
      {"measurement": "% TGI", "setting": "HT29 human colon tumor; HT29, 9 mg/kg iv, dihydrochloride", "value": 54, "unit": "%"},
      {"measurement": "% TGI", "setting": "HT29 human colon tumor; HT29, 9 mg/kg iv, listed as free drug, dihydrochloride", "value": 54, "unit": "%"},
      {"measurement": "Log 10 Cell Kill", "setting": "HT29 human colon tumor; HT29, 12 mg/kg iv", "value": 0.815},
      {"measurement": "T-C (time to reach 1,000% Tumor Volume, treated vs control)", "setting": "HT29 human colon tumor; HT29, 12 mg/kg iv", "value": 13, "unit": "days"},
      {"measurement": "% TGI", "setting": "HT29 human colon tumor; HT29, 12 mg/kg iv", "value": 70, "unit": "%"},
      {"measurement": "Log 10 Cell Kill", "setting": "HT29 human colon tumor; HT29, 14 mg/kg iv", "value": 1.94},
      {"measurement": "T-C (time to reach 1,000% Tumor Volume, treated vs control)", "setting": "HT29 human colon tumor; HT29, 14 mg/kg iv", "value": 31, "unit": "days"},
      {"measurement": "% TGI", "setting": "HT29 human colon tumor; HT29, 14 mg/kg iv", "value": 78, "unit": "%"}
    ]}
  ]
}
